Assay results published in US20040265847A1, “Method for treating Alzheimer's disease” (priority 1991, published 2004).

Experiments:
APP = test: Effect of zinc loading upon rat brain APP; type: in vivo; conditions: 120 mg/kg injected daily for four days
Experimental: 16 week old Sprauge-Dawley male rats were injected daily for four days with 120 mg/kg ZnCl2 solution. The animals were then anaesthetized, bled by intracardiac puncture and their brains removed, homogenized and separated into membrane and soluble fractions following ultracentrifugation.

[1] = system: human brain 130/110 kDa APP; test: ^65Zn binding to human brain 130/110 kDa APP (time course, competition, Scatchard)
Source text: FIG. 4 is a graphical representation showing a time course analysis of ^65Zn binding to human brain 130/110 kDa APP. Amyloid protein precursor (APP) was purified according to the method in Moir et al. (1992). The preparation of purified 130 and 110 kDa APP was derived from human brain membrane extracts and contained the full-length precursor with carboxyl terminus intact but lacked the 17 residue signal peptide. The 130 and 110 kDa proteins were apparent in equal ratios on silver staining following polyacrylamide gel electrophoresis and were the only bands visible. The identity of these two proteins was confirmed by Western blots with monoclonal antibody 22C11 (which recognises an amino terminal epitope on APP), and by amino terminal sequencing. The protein concentration of the APP preparation was determined by amino acid analysis. Aliquots of APP (90 ng, =1.1 pmole, assuming the average amino acid formula weight of APP is =80 kDa) were incubated at 20° C. for the times indicated. Incubations (50 μl) were performed in 150 mM NaCl, 50 mM Tris-Hcl, pH 7.4 in the presence of 10^6 cpm of ^65Zn (175 nM). The incubation solution was then applied to a 1.1 ml bed volume Sephadex G25 (Pharmacia, Uppsala, Sweden) column pre-equilibrated with 150 mM NaCl, 50 mM Tris-HCl, pH 7.4 and allowed to settle before being desalted with 645 μl of the Equilibration buffer. […] The desalted protein was collected directly into counting tubes containing 10 ml aqueous counting scintillant. Less than two minutes was required to complete the desalting. The amount of ^65Zn bound to desalted APP was determined by counting the collected sample in a beta-counter set to the broadest channel. Counting was determined to be 51% efficient. The values shown are means±SD of n≧3 readings.
FIG. 5 is a graphical representation showing a competition analysis of ^65Zn binding to human brain 130/110 kDa APP. Aliquots of APP were incubated for 30 minutes with ^65Zn as in FIG. 4. The binding of the labelled Zn^2+ to APP was subjected to competition with unlabelled Zn^2+ in the form of the chloride salt. Data shown indicate the competition curves generated at pH 6.4 and 7.4. The binding of Zn^2+ to APP deteriorated at the lower pH (=45% of Bmax, pH 7.4). The values are means±SEM of n≧3 readings. The curves illustrated are typical of three experiments.
FIG. 6 is a graphical representation depicting a Scatchard analysis of ^65Zn binding to human brain 130/110 kDa APP.
Binding analysis was performed as follows: Aliquots of APP (90 ng, =1.1 pmole, assuming the average amino acid formula mass of APP is =80 kDa) were incubated at 20° C. Incubations (50 μl) were performed in 150 mM NaCl, 50 mM Tris-HCl, pH 7.4 in the presence of 10^6 CPM of ^65Zn (175 nM). The incubation solution was then applied to a 1.1 ml bed volume Sephadex G25 (Pharmacia, Uppsala, Sweden) column pre-equilibrated with 150 mM NaCl, 50 mM Tris-HCl, pH 7.4 and allowed to settle before being desalted with 645 μl of the equilibration buffer. […] The deslated protein was collected directly into counting tubes containing 10 ml aqueous counting scintillant (ACSII, Amersham). Less than two minutes was required to complete the desalting. The amount of ^65Zn bound to desalted APP was determined by counting the collected sample in a beta-counter set to the broadest channel. Counting was determined to be 51% efficient. The binding of the labelled Zn^2+ to APP was subjected to competition with unlabelled Zn^2+ and other metal chloride salts.

PC12 cells = test: Effect of extracellular zinc on cultured PC12 cells (APP by Western blot); type: cell-based; conditions: 48 hr
Experimental: 10^6 PC12 cells were plated for 24 hr in the presence of Dulbecco's modified Eagle's medium (DMEM, N2) supplemented with 8% fetal calf serum (FCS). The medium was then removed and replaced with DMEM±2 to 50 μM ZnCl2 or another salt, and no FCS. Cells and media were harvested 48 hr later and aliquots of media, cell cytosol and membrane (following lysis and ultracentrifugation) were assayed for APP by Western blotting with mAb 22C11.

[Cl-].[Cl-].[Zn+2] [Zn^2+, ZnCl2]
new APP band in plasma (APP): development of a novel 80 kDa band in plasma
increase in the amounts of all forms of APP (APP; plasma and brain preparations vs litter-mates): 80%
Zn bound to APP, % of Bmax ([1]; at 1 minute): 30%
Zn bound to APP, % of Bmax ([1]; at 5 minutes): 30%
binding of Zn^2+ to APP at the lower pH, % of Bmax at pH 7.4 ([1]; pH 6.4): 45%
^65Zn label competed off APP (of Bmax) ([1]; unlabelled metal ion at 20 μM): > 97%
increase in APP released into the media (PC12 cells; 2 μM): 50%
increase in APP released into the media (peak) (PC12 cells; 50 μM): 200%
cytosolic APP (PC12 cells): Smaller increases in cytosolic APP
membrane associated APP levels (PC12 cells): no change in membrane associated APP levels
